Experiment: Concentration required for the inhibition of influenza neuraminidase activity by 50%
Set-up: species or system unidentified influenza virus

For `CCC(CC)O[C@@H]1C(Cl)=C(C(=O)O)C[C@H](N)[C@H]1NC(C)=O`, which IC50 is on record?
Its IC50 is 3100 nM.

Which IC50 does the source give for `CCC(CC)O[C@@H]1C(SC)=C(C(=O)O)C[C@H](N)[C@H]1NC(C)=O` here?
The IC50 was 3400 nM.

Which IC50 does the source give for `CCC(CC)O[C@@H]1C(C)=C(C(=O)O)C[C@H](N)[C@H]1NC(C)=O` here?
Its IC50 is 2300 nM.

With `CCC(CC)O[C@@H]1C=C(C(=O)O)C[C@H](N)[C@H]1NC(C)=O` [OSELTAMIVIR CARBOXYLATE] as the compound, how does the IC50 read?
Its IC50 is 1.4 nM.

Source: ChEMBL document CHEMBL1130482, “Synthesis and activity of C2-substituted analogs of influenza neuraminidase inhibitor GS 4071” (Bioorg Med Chem Lett, 1997)
